Laboratory results: patent US20230131966A1, “FUNGICIDAL AMIDES” (FMC Corporation, priority 2020, published 2023)

How the values were obtained:
Assay type in all cases: in vivo
[1] = tested on: Erysiphe graminis f. sp. tritici; assay: Test G: wheat powdery mildew control on wheat seedlings; settings: 100 = 100% disease control, 0 = no control; for pest or weed control at 250 ppm: Blumeria graminis, read-out: Test G disease control rating
[2] = tested on: Puccinia recondita f. sp. tritici; assay: Test B: wheat leaf rust control on wheat seedlings; settings: wheat seedlings, 100 = 100% disease control, 0 = no control; for pest or weed control at 250 ppm: Puccinia recondita, read-out: Test B disease control rating
[3] = tested on: Plasmopara viticola; assay: Test D: grape downy mildew control on grape seedlings; settings: 100 = 100% disease control, 0 = no control; for pest or weed control at 250 ppm: Plasmopara viticola, read-out: Test D disease control rating
[4] = tested on: Phakopsora pachyrhizi; assay: Test A: Asian soybean rust control on soybean seedlings; settings: soybean seedlings, 100 = 100% disease control, 0 = no control; for pest or weed control at 250 ppm: Phakopsora pachyrhizi, read-out: Test A disease control rating
[5] = tested on: Zymoseptoria tritici; assay: Test C: wheat leaf blotch control on wheat seedlings; settings: wheat seedlings, 100 = 100% disease control, 0 = no control; for pest or weed control at 250 ppm: Zymoseptoria tritici, read-out: Test C disease control rating
[6] = tested on: Botrytis cinerea; assay: Test E: tomato Botrytis control on tomato seedlings; settings: 100 = 100% disease control, 0 = no control; for pest or weed control at 250 ppm: Botrytis cinerea, read-out: Test E disease control rating
[7] = tested on: Phytophthora infestans; assay: whole plant or invertebrate; settings: tomato seedlings, 100 = 100% disease control, 0 = no control; for pest or weed control at 250 ppm: Phytophthora infestans, in Solanum lycopersicum, read-out: Test F disease control rating, 250 ppm

## COc1ccnc(C(=O)N[C@@H](C)C(=O)OC(C)c2ccc(F)cc2Cc2ccc(F)cc2)c1OC(C)=O (single isomer, unassigned) [Compound 58]
[1]; 250 ppm
  Test G disease control rating: 0%
[2]; 250 ppm
  Test B disease control rating: 99%
[3]; 250 ppm
  Test D disease control rating: 27%
[4]; 250 ppm
  Test A disease control rating: 98%
[5]; 250 ppm
  Test C disease control rating: 86%
[6]; 250 ppm
  Test E disease control rating: 0%
[7]; 250 ppm
  Test F disease control rating: 0%

## COc1cccc(C(=O)NC(C)C(=O)OC(C)C2CCCCC2)c1OC(C)=O (mixture of isomers) [Compound 92]
[1]; 250 ppm
  Test G disease control rating: 0%
[2]; 250 ppm
  Test B disease control rating: 0%
[3]; 250 ppm
  Test D disease control rating: 60%
[4]; 250 ppm
  Test A disease control rating: 0%
[5]; 250 ppm
  Test C disease control rating: 0%
[6]; 250 ppm
  Test E disease control rating: 0%
[7]; 250 ppm
  Test F disease control rating: 0%

## COc1ccnc(C(=O)N[C@@H](C)C(=O)OC(C)c2ccc(-n3ccc(C(F)(F)F)n3)cc2Cc2ccccc2)c1O (stereo partly drawn) [Compound 93]
[1]; 250 ppm
  Test G disease control rating: 0%
[2]; 250 ppm
  Test B disease control rating: 74%
[3]; 250 ppm
  Test D disease control rating: 0%
[4]; 250 ppm
  Test A disease control rating: 99%
[5]; 250 ppm
  Test C disease control rating: 72%
[6]; 250 ppm
  Test E disease control rating: 0%
[7]; 250 ppm
  Test F disease control rating: 0%

## COc1ccnc(C(=O)N[C@@H](C)C(=O)OC(C)c2ccc(C(C)(C)C)cc2)c1OC(C)=O (stereo partly drawn) [Compound 121]
[1]; 250 ppm
  Test G disease control rating: 0%
[2]; 250 ppm
  Test B disease control rating: 100%
[3]; 250 ppm
  Test D disease control rating: 50%
[4]; 250 ppm
  Test A disease control rating: 100%
[5]; 250 ppm
  Test C disease control rating: 99%
[6]; 250 ppm
  Test E disease control rating: 9%
[7]; 250 ppm
  Test F disease control rating: 0%

## COc1ccnc(C(=O)NC(C)C(=O)OC(C)C2CCCCCC2)c1OC(C)=O (mixture of isomers) [Compound 101]
[1]; 50 ppm
  Test G disease control rating: 0%
[2]; 50 ppm
  Test B disease control rating: 68%
[3]; 50 ppm
  Test D disease control rating: 86%
[4]; 50 ppm
  Test A disease control rating: 100%
[5]; 50 ppm
  Test C disease control rating: 66%
[6]; 50 ppm
  Test E disease control rating: 0%
[7]; 50 ppm
  Test F disease control rating: 0%

## COc1ccnc(C(=O)NC(C)C(=O)OC(C)c2ccc(C#N)cc2)c1OC(C)=O (mixture of isomers) [Compound 33]
[1]; 250 ppm
  Test G disease control rating: 0%
[2]; 250 ppm
  Test B disease control rating: 0%
[3]; 250 ppm
  Test D disease control rating: 66%
[4]; 250 ppm
  Test A disease control rating: 13%
[5]; 250 ppm
  Test C disease control rating: 87%
[6]; 250 ppm
  Test E disease control rating: 0%
[7]; 250 ppm
  Test F disease control rating: 0%

## COc1ccnc(C(=O)N[C@@H](C)C(=O)OC(C)c2ccccc2Cc2ccc(F)cc2)c1OC(C)=O (single isomer, unassigned) [Compound 11]
[1]; 250 ppm
  Test G disease control rating: 0%
[2]; 250 ppm
  Test B disease control rating: 19%
[3]; 250 ppm
  Test D disease control rating: 30%
[4]; 250 ppm
  Test A disease control rating: 0%
[5]; 250 ppm
  Test C disease control rating: 13%
[6]; 250 ppm
  Test E disease control rating: 0%
[7]; 250 ppm
  Test F disease control rating: 0%

## COc1ccnc(C(=O)NC(C)C(=O)OC(C)c2ccc(OC3CCCCC3)cc2)c1O (mixture of isomers) [Compound 53]
[1]; 250 ppm
  Test G disease control rating: 0%
[2]; 250 ppm
  Test B disease control rating: 55%
[3]; 250 ppm
  Test D disease control rating: 22%
[4]; 250 ppm
  Test A disease control rating: 56%
[5]; 250 ppm
  Test C disease control rating: 22%
[6]; 250 ppm
  Test E disease control rating: 0%
[7]; 250 ppm
  Test F disease control rating: 0%

## COc1ccnc(C(=O)N[C@@H](C)C(=O)OC(C)c2ccc(C3CCCCC3)cc2)c1OC(=O)c1ccccc1 (stereo partly drawn) [Compound 136]
[1]; 250 ppm
  Test G disease control rating: 0%
[2]; 250 ppm
  Test B disease control rating: 90%
[3]; 250 ppm
  Test D disease control rating: 4%
[4]; 250 ppm
  Test A disease control rating: 60%
[5]; 250 ppm
  Test C disease control rating: 0%
[6]; 250 ppm
  Test E disease control rating: 0%
[7]; 250 ppm
  Test F disease control rating: 0%

## COc1ccnc(C(=O)N[C@@H](C)C(=O)OC(C)C2CCCCC2)c1O (mixture of isomers) [Compound 30, N-[(3-hydroxy-4-methoxy-2-pyridinyl)carbonyl]-L-alanine 1-cyclohexylethyl ester]
[1]; 250 ppm
  pest or weed control at 250 ppm: 0%
[2]; 250 ppm
  pest or weed control at 250 ppm: 100%
[3]; 250 ppm
  pest or weed control at 250 ppm: 1%
[4]; 250 ppm
  pest or weed control at 250 ppm: 100%
[5]; 250 ppm
  pest or weed control at 250 ppm: 97%
[6]; 250 ppm
  pest or weed control at 250 ppm: 0%
[7]
  pest or weed control at 250 ppm: 0%

## COc1ccnc(C(=O)NC(C)C(=O)OC(C)c2cccc(-n3ccc(C(F)(F)F)n3)c2)c1O (mixture of isomers) [Compound 28]
[1]; 250 ppm
  Test G disease control rating: 0%
[2]; 250 ppm
  Test B disease control rating: 74%
[3]; 250 ppm
  Test D disease control rating: 40%
[4]; 250 ppm
  Test A disease control rating: 99%
[5]; 250 ppm
  Test C disease control rating: 90%
[6]; 250 ppm
  Test E disease control rating: 0%
[7]; 250 ppm
  Test F disease control rating: 0%

## CCC(OC(=O)[C@H](C)NC(=O)c1nccc(OC)c1OC(C)=O)c1ccc(C2CCCCC2)cc1 (single isomer, unassigned) [Compound 131]
[1]; 250 ppm
  Test G disease control rating: 89%
[2]; 250 ppm
  Test B disease control rating: 96%
[3]; 250 ppm
  Test D disease control rating: 6%
[4]; 250 ppm
  Test A disease control rating: 100%
[5]; 250 ppm
  Test C disease control rating: 87%
[6]; 250 ppm
  Test E disease control rating: 0%
[7]; 250 ppm
  Test F disease control rating: 0%

## CCC(OC(=O)[C@H](C)NC(=O)c1nccc(OC)c1OCOC(C)=O)c1ccc(C2CCCCC2)cc1 (single isomer, unassigned) [Compound 135]
[1]; 250 ppm
  Test G disease control rating: 86%
[2]; 250 ppm
  Test B disease control rating: 98%
[3]; 250 ppm
  Test D disease control rating: 29%
[4]; 250 ppm
  Test A disease control rating: 100%
[5]; 250 ppm
  Test C disease control rating: 81%
[6]; 250 ppm
  Test E disease control rating: 0%
[7]; 250 ppm
  Test F disease control rating: 0%

## COc1ccnc(C(=O)NC(C)C(=O)OC(C)c2ccc([N+](=O)[O-])cc2)c1OC(C)=O (mixture of isomers) [Compound 20]
[1]; 250 ppm
  Test G disease control rating: 0%
[2]; 250 ppm
  Test B disease control rating: 68%
[3]; 250 ppm
  Test D disease control rating: 4%
[4]; 250 ppm
  Test A disease control rating: 0%
[5]; 250 ppm
  Test C disease control rating: 64%
[6]; 250 ppm
  Test E disease control rating: 0%
[7]; 250 ppm
  Test F disease control rating: 0%

## COc1ccnc(C(=O)NC(C)C(=O)OC(C)C2CCC(c3ccccc3)CC2)c1O (mixture of isomers) [Compound 103]
[1]; 250 ppm
  Test G disease control rating: 0%
[2]; 250 ppm
  Test B disease control rating: 100%
[3]; 250 ppm
  Test D disease control rating: 74%
[4]; 250 ppm
  Test A disease control rating: 100%
[5]; 250 ppm
  Test C disease control rating: 99%
[6]; 250 ppm
  Test E disease control rating: 0%
[7]; 250 ppm
  Test F disease control rating: 0%

## COc1ccnc(C(=O)NC(C)C(=O)OC(C)c2cccc(-n3ccc(C(F)(F)F)n3)c2)c1OC(C)=O (mixture of isomers) [Compound 27]
[1]; 250 ppm
  Test G disease control rating: 0%
[2]; 250 ppm
  Test B disease control rating: 99%
[3]; 250 ppm
  Test D disease control rating: 38%
[4]; 250 ppm
  Test A disease control rating: 98%
[5]; 250 ppm
  Test C disease control rating: 81%
[6]; 250 ppm
  Test E disease control rating: 0%
[7]; 250 ppm
  Test F disease control rating: 0%

## COc1ccnc(C(=O)N[C@@H](C)C(=O)OC(C)C2CCCCC2)c1OC(C)=O (mixture of isomers) [Compound 29, N-[[3-(acetyloxy)-4-methoxy-2-pyridinyl]carbonyl]-L-alanine 1-cyclohexylethyl ester]
[1]; 250 ppm
  pest or weed control at 250 ppm: 0%
[2]; 250 ppm
  pest or weed control at 250 ppm: 99%
[3]; 250 ppm
  pest or weed control at 250 ppm: 17%
[4]; 250 ppm
  pest or weed control at 250 ppm: 100%
[5]; 250 ppm
  pest or weed control at 250 ppm: 95%
[6]; 250 ppm
  pest or weed control at 250 ppm: 0%
[7]
  pest or weed control at 250 ppm: 33%

## COc1ccc(COc2c(OC)ccnc2C(=O)NC(C)C(=O)OC(C)c2ccc(C3CCCCC3)cc2)cc1 (mixture of isomers) [Compound 155]
[1]; 250 ppm
  Test G disease control rating: 0%
[2]; 250 ppm
  Test B disease control rating: 99%
[3]; 250 ppm
  Test D disease control rating: 5%
[4]; 250 ppm
  Test A disease control rating: 100%
[5]; 250 ppm
  Test C disease control rating: 98%
[6]; 250 ppm
  Test E disease control rating: 0%
[7]; 250 ppm
  Test F disease control rating: 0%

## COc1ccnc(C(=O)NC(C)C(=O)OC(C)c2ccncc2)c1O (racemic) [Compound 14]
[1]; 250 ppm
  pest or weed control at 250 ppm: 0%
[2]; 250 ppm
  pest or weed control at 250 ppm: 0%
[3]; 250 ppm
  pest or weed control at 250 ppm: 48%
[4]; 250 ppm
  pest or weed control at 250 ppm: 0%
[5]; 250 ppm
  pest or weed control at 250 ppm: 12%
[6]; 250 ppm
  pest or weed control at 250 ppm: 0%
[7]
  pest or weed control at 250 ppm: 0%

## CC(NC(=O)c1cccc(NC=O)c1O)C(=O)OC(C)c1cccc(OC2CCC(C)(C)CC2)c1 (mixture of isomers) [Compound 160]
[1]; 250 ppm
  Test G disease control rating: 0%
[2]; 250 ppm
  Test B disease control rating: 92%
[3]; 250 ppm
  Test D disease control rating: 98%
[4]; 250 ppm
  Test A disease control rating: 100%
[5]; 250 ppm
  Test C disease control rating: 92%
[6]; 250 ppm
  Test E disease control rating: 0%
[7]; 250 ppm
  Test F disease control rating: 80%

## COc1ccnc(C(=O)N[C@@H](C)C(=O)OC(C2CCCCC2)C2CCCCC2)c1OC(C)=O [Compound 46]
[1]; 250 ppm
  Test G disease control rating: 91%
[2]; 250 ppm
  Test B disease control rating: 68%
[3]; 250 ppm
  Test D disease control rating: 22%
[4]; 250 ppm
  Test A disease control rating: 100%
[5]; 250 ppm
  Test C disease control rating: 68%
[6]; 250 ppm
  Test E disease control rating: 0%
[7]; 250 ppm
  Test F disease control rating: 0%
